Test results from patent publication US9556153B1, “JAK1 inhibitors” (Eli Lilly and Company, priority 2015, dated 2017).

Experiments:
[1] = molecular target: JAK1 (Homo sapiens, UniProt P23458); assay: AlphaScreen SureFire IL6-TF-1-JAK1 cell-based assay (pSTAT3 detection); parameters: endogenous in cells; host or cells: TF-1 cells; conditions: TF-1 cells, IL6 30 ng/mL; n=10; read-out: IC50, IL6-stimulated TF-1 JAK1 cell-based assay
Method: AlphaScreen SureFire Protocol […]-(p-Tyr705)-IL6-TF-1-JAK1 Cell-Based Assay
The JAK1 cell based assay described below is used to determine the JAK1 cellular potency of test compounds.
Starve TF-1 cells in DMEM medium with 0.5% […] and 1× Pen/Strep at 37° C. Plate 100K cells per well in BD 96 well black plates with clear bottoms. Maintain the plates at RT for 30-60 minutes before incubating overnight at 37° C. and 5% CO2. Count cells using Vi-Cell counter, using a cell suspension at […] and plated 100 μL/well in […] Biocoat plates (Catalog #354640).
Prepare compounds at 1:3 serial dilutions in DMSO and further dilute into the medium. Test compounds in a range of 10 point concentrations from 20,000 to 1 nM. Add diluted compound to corresponding cell plates. […]
Perform the following steps sequentially: make acceptor mix (activation buffer/reaction buffer/acceptor beads); transfer 4 μL lysate from 96 well plates to 384 well-Proxiplates; add 5 μL acceptor mix to 384 proxiplate plate(s) and seal plates with aluminum seal; shake 1-2 minutes on plate shaker; incubate plate at RT for 2 hr with gentle shaking; make donor mix (donor beads in dilution buffer); add 2 μL donor mix to assay plates; seal plates with aluminum seal; shake 1-2 minutes on plate shaker; incubate at RT for 2 hr with gentle shaking; read plate with Envision; protocol AlphaScreen Surefire 384.

[2] = test system: HCC827 xenograft tumor; assay: Efficacy Study in HCC827 Xenograft Tumor Model; format: in vivo, mouse; conditions: oral gavage, 28 days, HCC827 xenograft mice
Method: Efficacy Study in HCC827 Xenograft Tumor Model
The purpose of this assay is to measure the ability of compounds to inhibit tumor growth in the HCC827 xenograft mouse model. Grow HCC827 cells (ATCC# CRL-2868, Lot#59392891) according to ATCC specifications at the lowest possible passage number available. Culture cells and maintain in RPMI-1640 supplemented with 10% FBS and incubate at 37° C. in 5% CO2. Harvest cells from flasks using TryPLE, rinse twice in DPBS, resuspend in HBSS, and mix with BD Biosciences basement membrane matrix (MATRIGEL®) to cell suspension to achieve a 1:1 cell/matrix ratio yielding an inoculation volume of 0.2 ml cell/matrix suspension containing 5e^6 cells. Maintain cell suspensions on ice throughout the inoculation procedure and start implantations within one hour after cell culture harvest. Administer implantations subcutaneously in the right rear flank of female CB17 SCID mice obtained from Harlan (18-20 g). Feed mice Harlan Teklad Protein Extruded 2920X ad libitum and provide water with the rack watering system. Allow the implanted tumor cells to grow as a solid tumor and measure twice a week along with body weight beginning the seventh day after implantation. Determine tumor volumes using the calculation: 0.536*L*W^2. After tumor volume reaches approximately 150-200 mm^3, randomize animals and place into groups containing 5-8 animals each. Formulate the compounds in 1% HEC vehicle containing 0.25% Tween 80 and 0.05% antifoam with 1.1 molar equivalent of methanesulfonic acid to form an in situ salt (1.1 mL of 1N methanesulfonic acid per (insert molecular weight) mg of compound). Store test compound at RT. Formulate compounds once per week, and store at RT. […] Calculate doses based on the most recent group mean body weight. Administer compounds by oral gavage for 28 days either BID or QD depending on dosage.

[3] = molecular target: JAK2 (Homo sapiens, UniProt O60674); assay: Human whole blood assay: pSTAT5 (JAK2) in monocytes; format: cell-based; parameters: endogenous in cells; host or cells: human whole blood, CD4Low CD33Hi monocytes; conditions: HWB, GM-CSF stimulated, CD4Low CD33Hi monocytes; n=3
JAK2, sequence (O60674 whole entry): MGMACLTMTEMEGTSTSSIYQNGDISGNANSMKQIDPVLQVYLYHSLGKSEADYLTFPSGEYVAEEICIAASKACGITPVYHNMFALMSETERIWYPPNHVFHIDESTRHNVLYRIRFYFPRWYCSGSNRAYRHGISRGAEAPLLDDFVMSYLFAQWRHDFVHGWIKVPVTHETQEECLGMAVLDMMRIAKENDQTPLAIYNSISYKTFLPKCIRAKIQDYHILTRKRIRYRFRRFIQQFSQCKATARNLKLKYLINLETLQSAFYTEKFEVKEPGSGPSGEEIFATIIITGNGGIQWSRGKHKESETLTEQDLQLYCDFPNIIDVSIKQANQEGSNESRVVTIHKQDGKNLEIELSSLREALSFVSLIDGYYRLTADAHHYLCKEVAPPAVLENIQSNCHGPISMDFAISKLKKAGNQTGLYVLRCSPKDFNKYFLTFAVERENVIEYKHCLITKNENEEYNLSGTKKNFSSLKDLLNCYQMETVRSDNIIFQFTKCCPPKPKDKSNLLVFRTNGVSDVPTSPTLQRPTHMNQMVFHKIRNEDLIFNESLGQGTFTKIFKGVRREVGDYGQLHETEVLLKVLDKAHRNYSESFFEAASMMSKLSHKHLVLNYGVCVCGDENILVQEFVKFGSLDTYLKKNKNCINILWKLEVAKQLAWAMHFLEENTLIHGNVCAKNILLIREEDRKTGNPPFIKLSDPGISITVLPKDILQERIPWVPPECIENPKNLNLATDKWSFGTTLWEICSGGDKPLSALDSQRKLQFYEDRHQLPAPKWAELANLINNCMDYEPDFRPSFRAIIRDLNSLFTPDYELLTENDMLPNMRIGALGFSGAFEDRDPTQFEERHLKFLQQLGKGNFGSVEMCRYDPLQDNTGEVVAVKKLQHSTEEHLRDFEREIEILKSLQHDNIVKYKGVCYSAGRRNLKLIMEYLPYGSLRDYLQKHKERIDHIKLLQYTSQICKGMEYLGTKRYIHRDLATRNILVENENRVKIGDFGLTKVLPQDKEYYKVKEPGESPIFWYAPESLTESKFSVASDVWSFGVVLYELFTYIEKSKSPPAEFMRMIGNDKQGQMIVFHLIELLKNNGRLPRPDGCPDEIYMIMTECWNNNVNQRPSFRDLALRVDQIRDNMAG
From the text: Human Whole Blood Assays: Determination of pSTAT3 (JAK1) and pSTAT5 (JAK2) in Lymphocytes and Monocytes
Human whole blood (HWB) assays were developed and validated to determine the JAK1 and JAK2 selectivity of test compounds.
Dilute the test compounds, 10 points, (1:3) in DMSO 100% and a step down in PBS+0.1% BSA. Use tofacitinib as a reference compound in each plate, as well as a maximum signal (stimulated wells) and a minimum signal (no stimulated wells) in order to normalize data. Obtain a pool of HWB from 4 different healthy donors. Plate the blood in a 96 well plate using a Tecan Evo 96w and incubate with test compounds for 1 h at RT. After this time of incubation, stimulate HWB with both IL6 (206-IL, R&D System) and GM-CSF (PHC2015, Life Technologies) for 15 more minutes. […]
The final concentrations in the assay are the following: 100 μM for compounds, 50 μM for tofacitinib, 0.1 μg/mL IL6, 0.038 μg/mL GM-CSF and 1% DMSO. […] Incubate the antibodies for 1 h in dark at RT, then wash cells 2× and read on Cytometer Macsquant (Miltenyi Biotec). Gate the data on CD4+(lymphocytes) and CD4Low CD33Hi (monocytes), to measure the fluorescence from cells expressing pSTAT3 and pSTAT5 respectively. Analyze the data using FlowJo v_10 and the normalize the median of fluorescence versus maximum and minimum signal to determine the IC50s. […]

JAK1, sequence (P23458 whole entry): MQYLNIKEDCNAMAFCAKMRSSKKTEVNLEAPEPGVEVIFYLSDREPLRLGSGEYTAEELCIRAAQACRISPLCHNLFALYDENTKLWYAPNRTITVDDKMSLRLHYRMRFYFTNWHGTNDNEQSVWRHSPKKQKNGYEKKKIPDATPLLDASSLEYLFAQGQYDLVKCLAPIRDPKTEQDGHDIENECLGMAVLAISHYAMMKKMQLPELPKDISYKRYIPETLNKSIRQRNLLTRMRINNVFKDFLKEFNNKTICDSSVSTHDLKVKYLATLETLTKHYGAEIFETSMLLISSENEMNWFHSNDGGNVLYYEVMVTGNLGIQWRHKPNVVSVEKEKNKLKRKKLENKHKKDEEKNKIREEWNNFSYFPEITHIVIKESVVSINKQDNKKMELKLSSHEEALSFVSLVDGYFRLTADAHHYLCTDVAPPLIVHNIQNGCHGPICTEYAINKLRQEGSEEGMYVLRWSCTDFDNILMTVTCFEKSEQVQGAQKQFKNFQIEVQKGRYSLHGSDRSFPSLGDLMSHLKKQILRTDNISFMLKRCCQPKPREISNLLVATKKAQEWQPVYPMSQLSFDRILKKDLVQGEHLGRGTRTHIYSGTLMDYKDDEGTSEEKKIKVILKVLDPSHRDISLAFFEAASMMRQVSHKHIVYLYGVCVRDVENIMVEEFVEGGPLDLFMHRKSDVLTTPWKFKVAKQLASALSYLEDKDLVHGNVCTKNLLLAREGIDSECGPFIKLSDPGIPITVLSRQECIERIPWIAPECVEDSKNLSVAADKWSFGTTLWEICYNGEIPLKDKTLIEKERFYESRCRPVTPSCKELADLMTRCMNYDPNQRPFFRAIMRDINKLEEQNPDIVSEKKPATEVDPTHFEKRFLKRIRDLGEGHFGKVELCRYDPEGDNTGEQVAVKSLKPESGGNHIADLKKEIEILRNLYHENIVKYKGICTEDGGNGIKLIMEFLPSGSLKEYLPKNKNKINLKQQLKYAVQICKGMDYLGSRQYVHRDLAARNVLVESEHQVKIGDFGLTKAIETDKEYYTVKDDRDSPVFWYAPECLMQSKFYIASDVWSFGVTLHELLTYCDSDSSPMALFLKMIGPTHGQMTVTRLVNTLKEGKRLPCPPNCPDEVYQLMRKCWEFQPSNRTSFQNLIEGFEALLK

SMILES: Cc1cc(Nc2cc(O[C@H]3CC[C@@H](NC[C@@H](O)C(F)(F)F)CC3)cc3c2ncn3C)nn1C [Example 1, (2R)-3-{[cis-4-({4-[(1,5-Dimethyl-1H-pyrazol-3-yl)amino]-1-methyl-1H-benzimidazol-6-yl}oxy)cyclohexyl]amino}-1,1,1-trifluoropropan-2-ol]
- IC50 [1]: 0.087 µM
- tumor growth inhibition ([2]; 30 mg/kg BID): 31%
- tumor regression ([2]; 60 mg/kg BID): 22%
- tumor regression ([2]; 120 mg/kg QD): 22%
- IC50 [3]: 13 ± 3.2 µM
